Measurements: patent publication US8574563B2 (Bristol-Myers Squibb Company, priority 2006, dated 2013)

System: HCV 1b-377-neo replicon cells
Assay: HCV replicon assay, HCV 1b-377-neo replicon cells (1b FRET)
Type: cell-based, Hepatitis C virus genotype 1b
Conditions: Hepatitis C virus, HCV 1b-377-neo replicon cells; HCV 1b genotype; read-out: EC50 range against HCV 1b (Table 2, Range)
In short: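 Compounds tested in HCV genotype 1b-377-neo replicon cells with a FRET read-out. Cells resistant to a reference NS5A inhibitor through a Y2065H NS5A mutation were run alongside wild-type cells.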

Row | Compound | EC50 [nM]
1 | COC(=O)N[C@@H](C(=O)N1CCC[C@H]1c1ncc(-c2ccc(-c3ccc(-c4cnc([C@@H]5CCCN5C(=O)OC)[nH]4)cc3)cc2)[nH]1)c1ccccc1 [Example 77, methyl (2S)-2-(5-(4′-(2-((2S)-1-((2R)-2-((methoxycarbonyl)amino)-2-phenylacetyl)-2-pyrrolidinyl)-1H-imidazol-5-yl)-4-biphenylyl)-1H-imidazol-2-yl)-1-pyrrolidinecarboxylate] | 0.001 to 0.999
2 | COC(=O)N[C@@H](C)C(=O)N1CCC[C@H]1c1nc(C(=O)OCc2ccccc2)c(-c2ccc(-c3ccc(-c4cnc([C@@H]5CCCN5C(=O)[C@@H](C)NC(=O)OC)[nH]4)cc3)cc2)[nH]1 [Example J24, benzyl 2-((2S)-l-(N-(methoxycarbonyl)-L-alanyl)-2-pyrrolidinyl)-5-(4-(2-((2S)-l-(N-(methoxycarbonyl)-L-alanyl)-2-pyrrolidinyl)-1H-imidazol-5-yl)-4-biphenylyl)-1H-imidazole-4-carboxylate] | 0.001 to 0.999
3 | COC(=O)NCC(=O)N1CC2(CC2)C[C@H]1c1nc(-c2ccc(-c3ccc(-c4c[nH]c([C@@H]5CC6(CC6)CN5C(=O)CNC(=O)OC)n4)cc3)cc2)c[nH]1 [Example M146, methyl (2-((6S)-6-(4-(4′-(2-((6S)-5-(((methoxycarbonyl)amino)acetyl)-5-azaspiro[2.4]hept-6-yl)-1H-imidazol-4-yl)-4-biphenylyl)-1H-imidazol-2-yl)-5-azaspiro[2.4]hept-5-yl)-2-oxoethyl)carbamate] | 0.001 to 0.999
4 | CN(C)[C@@H](C(=O)N1CCC[C@H]1c1ncc(-c2cnc(-c3ncc(-c4cnc([C@@H]5CCCN5C(=O)[C@@H](c5ccccc5)N(C)C)[nH]4)cn3)nc2)[nH]1)c1ccccc1 [Example 153c-3, (1R,1′R)-2,2′-(2,2′-bipyrimidine-5,5′-diylbis(1H-imidazole-5,2-diyl(2S)-2,1-pyrrolidinediyl))bis(N,N-dimethyl-2-oxo-1-phenylethanamine)] | 1000 to 10000
5 | COC(=O)N[C@H](C(=O)N1CCC[C@H]1c1ncc(-c2ccc(-c3ccc(-c4nc([C@@H]5CCCN5C(=O)[C@@H](NC(=O)OC)[C@@H](C)OC)[nH]c4C)cc3)cc2)[nH]1)C(C)OC (stereo in doubt) [Example E5f, methyl ((1S,2R)-2-methoxy-1-(((2S)-2-(4-(4′-(2-((2S)-1-(N-(methoxycarbonyl)-O-methyl-L-threonyl)-2-pyrrolidinyl)-4-methyl-1H-imidazol-5-yl)-4-biphenylyl)-1H-imidazol-2-yl)-1-pyrrolidinyl)carbonyl)propyl)carbamate] | 0.001 to 0.999
6 | CCN(CC)[C@H]1CC[C@@H](C(=O)N2CCC[C@H]2c2ncc(-c3ccc(-c4ccc(-c5cnc([C@@H]6CCCN6C(=O)[C@H](C)NC(=O)OC)[nH]5)cc4)cc3)[nH]2)CC1 [cj-74, methyl ((1S)-2-((2S)-2-(5-(4′-(2-((2S)-1-((cis-4-(diethylamino)cyclohexyl)carbonyl)-2-pyrrolidinyl)-1H-imidazol-5-yl)-4-biphenylyl)-1H-imidazol-2-yl)-1-pyrrolidinyl)-1-methyl-2-oxoethyl)carbamate] | 1 to 99
7 | COC(=O)N[C@@H](C(=O)N[C@@H](C)c1ncc(-c2ccc(-c3ccc(-c4cnc([C@H](C)NC(=O)[C@H](NC(=O)OC)c5ccccc5)[nH]4)cn3)cc2)[nH]1)c1ccccc1 [Example 152j-23, methyl ((1R)-2-(((1S)-1-(5-(6-(4-(2-((1S)-1-(((2R)-2-((methoxycarbonyl)amino)-2-phenylacetyl)amino)ethyl)-1H-imidazol-5-yl)phenyl)-3-pyridinyl)-1H-imidazol-2-yl)ethyl)amino)-2-oxo-1-phenylethyl)carbamate] | 0.001 to 0.999
8 | COC(=O)N[C@@H](C(=O)N1CCC[C@H]1c1ncc(-c2ccc(-c3ccc(-c4cnc([C@@H]5CCCN5C(=O)CNC(=O)c5ccccc5)[nH]4)cc3)cc2)[nH]1)c1ccccc1 [Example 84-7, methyl ((1R)-2-((2S)-2-(5-(4′-(2-((2S)-1-(N-benzoylglycyl)-2-pyrrolidinyl)-1H-imidazol-5-yl)-4-biphenylyl)-1H-imidazol-2-yl)-1-pyrrolidinyl)-2-oxo-1-phenylethyl)carbamate] | 1 to 99
9 | COC(=O)N[C@H](Cc1ccccc1)C(=O)N1CCC[C@H]1c1ncc(-c2ccc(-c3ccc(-c4cnc([C@@H]5CCCN5C(=O)[C@@H](Cc5ccccc5)NC(=O)OC)[nH]4)cc3)cc2)[nH]1 [cj-145, methyl ((1R)-1-benzyl-2-((2S)-2-(5-(4′-(2-((2S)-1-((2R)-2-((methoxycarbonyl)amino)-3-phenylpropanoyl)-2-pyrrolidinyl)-1H-imidazol-5-yl)-4-biphenylyl)-1H-imidazol-2-yl)-1-pyrrolidinyl)-2-oxoethyl)carbamate] | 1 to 99
10 | CCN(CC)[C@@H](C(=O)N1CCC[C@H]1c1ncc(-c2ccc(-c3ccc(-c4cnc([C@@H]5CCCN5C(=O)[C@H](Cc5cn(C)cn5)NC(=O)OC)[nH]4)cc3)cc2)[nH]1)c1ccccc1 [cj-40, methyl ((1S)-2-((2S)-2-(5-(4′-(2-((2S)-1-((2R)-2-(diethylamino)-2-phenylacetyl)-2-pyrrolidinyl)-1H-imidazol-5-yl)-4-biphenylyl)-1H-imidazol-2-yl)-1-pyrrolidinyl)-1-((1-methyl-1H-imidazol-4-yl)methyl)-2-oxoethyl)carbamate] | 0.001 to 0.999
11 | COC(=O)N[C@@H](C(=O)N1CCC[C@H]1c1ncc(-c2ccc(-c3cc(F)c(-c4cnc([C@@H]5CCCN5C(=O)[C@H](NC(=O)OC)c5ccccc5)[nH]4)cc3F)cc2)[nH]1)c1ccccc1 [Example D53, dimethyl ((2,5-difluoro-4,4′-biphenyldiyl)bis(1H-imidazole-5,2-diyl(2S)-2,1-pyrrolidinediyl((1R)-2-oxo-1-phenyl-2,1-ethanediyl))) biscarbamate] | 0.001 to 0.999
12 | COC(=O)N[C@H](C(=O)N1CCC[C@H]1c1ncc(-c2ccc(-c3ccc(-c4cnc([C@@H]5CCCN5C(=O)c5c[nH]cn5)[nH]4)cc3)cc2)[nH]1)C(C)C [Example M87, methyl ((1S)-1-(((2S)-2-(5-(4′-(2-((2S)-1-(1H-imidazol-4-ylcarbonyl)-2-pyrrolidinyl)-1H-imidazol-5-yl)-4-biphenylyl)-1H-imidazol-2-yl)-1-pyrrolidinyl)carbonyl)-2-methylpropyl)carbamate] | 1 to 99
13 | CC(C)[C@H](NS(C)(=O)=O)C(=O)N1CCC[C@H]1c1nc(-c2ccc(-c3ccc(-c4c[nH]c([C@@H]5CCCN5C(=O)[C@@H](NS(C)(=O)=O)C(C)C)n4)cc3)cc2)c[nH]1 [Example F66, N-((1S)-2-methyl-1-(((2S)-2-(4-(4′-(2-((2S)-1-((2S)-3-methyl-2-((methylsulfonyl)amino)butanoyl)-2-pyrrolidinyl)-1H-imidazol-4-yl)-4-biphenylyl)-1H-imidazol-2-yl)-1-pyrrolidinyl)carbonyl)propyl)methanesulfonamide] | 1 to 99
14 | CO[C@H](C(=O)N1CCC[C@H]1c1ncc(-c2ccc(-c3ccc(-c4cnc([C@@H]5CCCN5C(=O)[C@@H](c5ccccc5)N5CCCCC5)[nH]4)cc3)cc2)[nH]1)c1ccccc1 [Example 107-20, 1-((1R)-2-((2S)-2-(5-(4′-(2-((2S)-1-((2S)-2-methoxy-2-phenylacetyl)-2-pyrrolidinyl)-1H-imidazol-5-yl)-4-biphenylyl)-1H-imidazol-2-yl)-1-pyrrolidinyl)-2-oxo-1-phenylethyl) piperidine] | 0.001 to 0.999
15 | COC(=O)N[C@H](C(=O)N1CCC[C@H]1c1ncc(-c2ccc(-c3ccc(-c4cnc([C@@H]5CCCN5C(=O)[C@@H](NC5=NCCN5C)C(C)C)[nH]4)cc3)cc2)[nH]1)C(C)C [cj-11d, methyl ((1S)-2-methyl-1-(((2S)-2-(5-(4′-(2-((2S)-1-(N-(1-methyl-4,5-dihydro-1H-imidazol-2-yl)-L-valyl)-2-pyrrolidinyl)-1H-imidazol-5-yl)-4-biphenylyl)-1H-imidazol-2-yl)-1-pyrrolidinyl)carbonyl)propyl)carbamate] | 0.001 to 0.999
16 | CNC(=O)N[C@H](C(=O)N1CCC[C@H]1c1nc(-c2ccc(-c3ccc(-c4c[nH]c([C@@H]5CCCN5C(=O)[C@@H](NC(=O)NC)C(C)C)n4)cc3)cc2)c[nH]1)C(C)C [Example F63, 1-methyl-3-((1S)-2-methyl-1-(((2S)-2-(4-(4′-(2-((2S)-1-(N-(methylcarbamoyl)-L-valyl)-2-pyrrolidinyl)-1H-imidazol-4-yl)-4-biphenylyl)-1H-imidazol-2-yl)-1-pyrrolidinyl)carbonyl)propyl)urea] | 0.001 to 0.999
17 | COC(=O)N[C@@H](C(=O)N1CCC[C@H]1c1ncc(-c2cnc(-c3ccc(-c4[nH]c([C@@H]5CCCN5C(=O)[C@H](NC(=O)OC)c5ccccc5)nc4C(F)(F)F)cc3)nc2)[nH]1)c1ccccc1 [Example J46, methyl ((1R)-2-((2S)-2-(5-(4-(5-(2-((2S)-1-((2R)-2-((methoxycarbonyl)amino)-2-phenylacetyl)-2-pyrrolidinyl)-1H-imidazol-5-yl)-2-pyrimidinyl)phenyl)-4-(trifluoromethyl)-1H-imidazol-2-yl)-1-pyrrolidinyl)-2-oxo-1-phenylethyl)carbamate] | 0.001 to 0.999
18 | CCN(CC)[C@@H](C(=O)N1CCC[C@H]1c1ncc(-c2ccc(-c3ccc(-c4cnc([C@@H]5CCCN5C(=O)CNC(=O)OC)[nH]4)cc3)cc2)[nH]1)c1ccccc1 [Example M50, methyl (2-((2S)-2-(5-(4′-(2-((2S)-1-((2R)-2-(diethylamino)-2-phenylacetyl)-2-pyrrolidinyl)-1H-imidazol-5-yl)-4-biphenylyl)-1H-imidazol-2-yl)-1-pyrrolidinyl)-2-oxoethyl)carbamate] | 1 to 99
19 | O=C(Cc1ccccc1CN1CCCC1)N1CCC[C@H]1c1ncc(-c2ccc(-c3ccc(-c4cnc([C@@H]5CCCN5C(=O)[C@@H](c5ccccc5)N5CCCCC5)[nH]4)cc3)cc2)[nH]1 [Example 107-27, 1-((1R)-2-oxo-1-phenyl-2-((2S)-2-(5-(4′-(2-((2S)-1-((2-(1-pyrrolidinylmethyl)phenyl)acetyl)-2-pyrrolidinyl)-1H-imidazol-5-yl)-4-biphenylyl)-1H-imidazol-2-yl)-1-pyrrolidinyl)ethyl)piperidine] | 0.001 to 0.999
